{"source": "PubChem BioAssay AID720677", "about": "(Sanford-Burnham Center for Chemical Genomics, 2013)", "note": "Activity calls are given as the source filed them.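 The calls were made as follows: active = compounds whose IC50 is at or below a set limit; inactive = the rest.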"}
{"target": "Bcl-2-like protein 10 (Homo sapiens) (UniProt Q9HD36)", "sequence (Q9HD36 whole entry, looked up)": "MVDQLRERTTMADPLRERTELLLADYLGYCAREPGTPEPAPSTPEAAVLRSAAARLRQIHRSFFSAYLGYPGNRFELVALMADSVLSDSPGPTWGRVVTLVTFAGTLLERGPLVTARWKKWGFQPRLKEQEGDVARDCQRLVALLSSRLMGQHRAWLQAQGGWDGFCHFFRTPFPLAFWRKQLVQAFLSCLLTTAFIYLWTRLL", "assay": "Bcl-B inhibitors displacing Bim peptide, SAR follow-up, biochemical, fluorescence polarization, set 2 (AID 720677)", "details": "GST-Bcl-B / FITC-Bim peptide fluorescence polarization displacement"}
{"smiles": "COc1ccc(Cn2c(=O)c3c(n4nnnc24)-c2ccccc2CC32CCCC2)cc1", "IC50": "795 nM"}
{"smiles": "O=c1c2c(n3cnnc3n1Cc1ccc(F)cc1)-c1cc(F)ccc1CC21CCCC1", "IC50": "> 20000 nM (inactive)"}
{"smiles": "COc1ccc(Cn2c(=O)c3c(n4nnnc24)-c2cc(F)ccc2CC32CCCC2)cc1", "IC50": "1010 nM"}
{"smiles": "O=c1c2c(n3nnnc3n1Cc1ccccc1Cl)-c1ccccc1CC21CCCC1", "IC50": "> 20000 nM (inactive)"}
{"smiles": "COc1ccccc1Cn1c(=O)c2c(n3nnnc13)-c1ccccc1CC21CCCC1", "IC50": "> 20000 nM (inactive)"}
{"smiles": "COc1cccc(Cn2c(=O)c3c(n4nnnc24)-c2ccccc2CC32CCCC2)c1", "IC50": "985 nM"}
{"smiles": "COc1ccc(Cn2c(=O)c3c(n4cnnc24)-c2cc(F)ccc2CC32CCCC2)cc1", "IC50": "3430 nM"}
